Measurements: ChEMBL document CHEMBL4219066, “Identification and Mitigation of Reactive Metabolites of 2-Aminoimidazole-Containing Microsomal Prostaglandin E Synthase-1 Inhibitors Terminated Due to Clinical Drug-Induced Liver Injury” (J Med Chem, 2018)
Blank lines part the entries; values can stand above or below the compound they belong to.

Key:
Assay type in all cases: ADME, cell-based, Hepatocyte
[1] = Drug metabolism in rat hepatocytes assessed as metabolite formation at 2 uM after 4 hrs by LC-MS/MS analysis
[2] = Drug metabolism in human hepatocytes assessed as metabolite formation at 2 uM after 4 hrs by LC-MS/MS analysis
[3] = Drug level in human hepatocytes treated with 2-Chloro-N-(4-(hydroxymethyl)-1H-imidazol-2-yl)-5-(pivalamidomethyl)benzamide at 2 uM after 4 hrs by LC-MS/MS analysis
[4] = Drug level in rat hepatocytes treated with 2-Chloro-N-(4-(hydroxymethyl)-1H-imidazol-2-yl)-5-(pivalamidomethyl)benzamide at 2 uM after 4 hrs by LC-MS/MS analysis
[5] = Drug level in human hepatocytes treated with 2-(2-Chloro-5-(pivalamidomethyl)benzamido)-N-phenyl-1Himidazole-4-carboxamide at 2 uM after 4 hrs by LC-MS/MS analysis
[6] = Drug level in rat hepatocytes treated with 2-(2-Chloro-5-(pivalamidomethyl)benzamido)-N-phenyl-1Himidazole-4-carboxamide at 2 uM after 4 hrs by LC-MS/MS analysis
[7] = Drug metabolism in human hepatocytes assessed as N-carbamimidoyl-2-chloro-5-(pivalamidomethyl)benzamide formation at 2 uM after 4 hrs by LC-MS/MS analysis
[8] = Drug metabolism in rat hepatocytes assessed as N-carbamimidoyl-2-chloro-5-(pivalamidomethyl)benzamide formation at 2 uM after 4 hrs by LC-MS/MS analysis
[9] = Drug metabolism in rat hepatocytes assessed as 2-chloro-N-(4,5-dimethyl-1H-imidazol-2-yl)-5-((3-hydroxy-2,2-dimethylpropanamido)methyl)benzamide formation at 2 uM after 4 hrs by LC-MS/MS analysis
[10] = Drug metabolism in human hepatocytes assessed as 2-chloro-N-(4,5-dimethyl-1H-imidazol-2-yl)-5-((3-hydroxy-2,2-dimethylpropanamido)methyl)benzamide formation at 2 uM after 4 hrs by LC-MS/MS analysis
[11] = Drug metabolism in rat hepatocytes assessed as 2-chloro-N-(4-(hydroxymethyl)-5-methyl-1H-imidazol-2-yl)-5-(pivalamidomethyl)benzamide formation at 2 uM after 4 hrs by LC-MS/MS analysis
[12] = Drug metabolism in human hepatocytes assessed as 2-chloro-N-(4-(hydroxymethyl)-5-methyl-1H-imidazol-2-yl)-5-(pivalamidomethyl)benzamide formation at 2 uM after 4 hrs by LC-MS/MS analysis
[13] = Drug metabolism in rat hepatocytes assessed as 2-chloro-5-((3-hydroxy-2,2-dimethylpropanamido)methyl)-N-(4-methyl-1H-imidazol-2-yl)benzamide formation at 2 uM after 4 hrs by LC-MS/MS analysis
[14] = Drug metabolism in human hepatocytes assessed as 2-chloro-5-((3-hydroxy-2,2-dimethylpropanamido)methyl)-N-(4-methyl-1H-imidazol-2-yl)benzamide formation at 2 uM after 4 hrs by LC-MS/MS analysis
[15] = Drug metabolism in rat hepatocytes assessed as 2-chloro-N-(4-(hydroxymethyl)-1H-imidazol-2-yl)-5-(pivalamidomethyl)benzamide formation at 2 uM after 4 hrs by LC-MS/MS analysis
[16] = Drug metabolism in human hepatocytes assessed as 2-chloro-N-(4-(hydroxymethyl)-1H-imidazol-2-yl)-5-(pivalamidomethyl)benzamide formation at 2 uM after 4 hrs by LC-MS/MS analysis

Drug metabolism [1]: Metabolite_Notdetected | Drug metabolism [2]: Metabolite_Notdetected
SMILES: CC(C)(C)C(=O)NCc1ccc(Cl)c(C(=O)Nc2nc(C(N)=O)c[nH]2)c1

Drug metabolism [3]: Metabolite_Detected | Drug metabolism [4]: Metabolite_Detected | Drug metabolism [5]: Metabolite_Detected | Drug metabolism [6]: Metabolite_Detected
SMILES: CC(C)(C)C(=O)NCc1ccc(Cl)c(C(=O)Nc2nc(C(=O)O)c[nH]2)c1

Drug metabolism [7]: Metabolite_Detected | Drug metabolism [8]: Metabolite_Detected | Drug metabolism [9]: Metabolite_Detected | Drug metabolism [10]: Metabolite_Detected | Drug metabolism [11]: Metabolite_Detected | Drug metabolism [12]: Metabolite_Detected
SMILES: Cc1nc(NC(=O)c2cc(CNC(=O)C(C)(C)C)ccc2Cl)[nH]c1C

Drug metabolism [7]: Metabolite_Detected | Drug metabolism [8]: Metabolite_Detected | Drug metabolism [13]: Metabolite_Detected | Drug metabolism [14]: Metabolite_Detected | Drug metabolism [15]: Metabolite_Detected | Drug metabolism [16]: Metabolite_Detected
SMILES: Cc1c[nH]c(NC(=O)c2cc(CNC(=O)C(C)(C)C)ccc2Cl)n1
